In US20240398899A1 (priority 2021, published 2024):

How the values were obtained:
Assay type in all cases: cell-based, human
[1] = system: SH-SY5Y neuronal cells; test: Mitochondrial membrane potential against MPP+ iodide damage, JC-1 assay; details: MPP+ iodide 1 mM; for Mitochondrial membrane potential: red/green fluorescence ratio
Protocol: The plated cells were incubated overnight in 5% CO2 incubator at 37° C. After 24 h, cells were treated with concentrations of recombinant lectin protein having SEQ ID NO: 1 ranging from 1 μg/ml-50 μg/ml for 24 h. After 24 h of treatment, cells were exposed to damage (MPP+ iodide 1 mM) for 24 h. […] Untreated cells were included as control. Cells treated with Deprenyl served as positive control. After MPP+ iodide exposure, the protective effect of recombinant lectin protein having SEQ ID NO: 1 on mitochondrial membrane potential was assessed by JC-1 assay as follows; after incubation, the supernatants were discarded and 100 μl of JC1-dye solution (prepared by diluting 1 mM DMSO stock in to 10 μM in 1×PBS) was added to each well. The cells were then incubated with the dye in CO2 incubator at 37° C. for 15 min. After 15 min of incubation, the supernatant was removed, and the cells were washed twice with 1×PBS (phosphate buffer saline). 100 μl of 1×PBS was finally added to each well. Red fluorescence (excitation 550 nm, emission 600 nm) and green fluorescence (excitation 485 nm, emission 535 nm) were measured using Biotek Synergy HT plate reader. The mitochondrial membrane potential (Δψm) was calculated as the ratio of intensity of red fluorescence to intensity of green fluorescence described as follows: • Δψm=Intensity of red fluorescence/Intensity of green fluorescence • The percentage increase/restoration in Mitochondrial Membrane Potential against MPP+ iodide damage was calculated as:
[formula] • Where X=Δψm corresponding to SEQ ID NO: 1+ MPP+ iodide treated cells • R=Δψm corresponding to control cells (MPP+ iodide damage alone)

[2] = system: Dopamine; test: Parkinson biomarker multiplex analysis/ELISA, MPP+ damaged SH-SY5Y; details: MPP + Iodide (2 mM)
Protocol: (§1) After overnight incubation as in the previous examples, cells were treated with recombinant lectin protein having SEQ ID NO: 1 at different concentrations ranging from 0.001 μg/ml-1 μg/ml for 24 h for Parkinson disease and 0.01 μg/ml-25 μg/ml for 24 h for Alzheimer's disease. • Parkinson Disease: After 24 h of pre-treatment with recombinant lectin protein having SEQ ID NO: 1, cells were exposed (MPP+) for another 24 h. Cells treated with MPP+Iodide were included as Control. […] The cells treated with Galantamine were included as positive Control.
(§2) The levels of markers were determined by multiplex analysis as: Cell culture supernatants were diluted (1:2) with Calibrator Diluent. 50 μl of standard or sample was added per well. 50 μl of the microparticle cocktail was added to each well of the microplate and covered with a foil plate sealer. The plate was incubated for 2 hours at room temperature on a horizontal orbital microplate shaker. The plate was washed using a magnetic device designed to accommodate a microplate. Washing was done by applying the magnet to the bottom of the microplate, allowing 1 minute before removing the liquid, filling each well with wash buffer (100 μl) and allowing 1 minute before removing the liquid again. 50 μl of diluted Biotin-Antibody Cocktail was added to each well. Covered the plate with a foil plate sealer and incubated for 1 hour at room temperature on the shaker. Repeated the wash step. 50 μl of diluted Streptavidin-PE was added to each well. The plate was securely covered with a foil plate sealer and incubated for 30 minutes at room temperature on the shaker. Repeated the wash step. The microparticles were resuspended by adding 100 μl of Wash Buffer to each well. The plate was incubated for 2 minutes on the shaker and read within 90 minutes using Magpix® multiplex machine. Levels of biomarkers for Parkinson's and Alzheimer's disease were estimated using Magpix® multiplex machine.
(§3) For Parkinson's the percent modulation in each sample was determined as follows:
(§4) [{Concentration of biomarkers(pg/ml) in SEQ ID NO:1+MPP+Iodide treated cells)−Concentration of biomarkers(pg/ml) in Control cells(MPP+Iodide alone treated)}/Concentration of biomarkers(pg/ml) in Control cells(MPP+Iodide alone treated)]*100

[3] = system: Calbindin D; test: as above; details: MPP + Iodide (2 mM)
Protocol: as §1, §2, §3, §4

[4] = system: Serotonin; test: as above; details: MPP + Iodide (2 mM)
Protocol: as §1, §2, §3, §4

[5] = system: Park7/DJ-1; test: as above; details: MPP + Iodide (2 mM)
Protocol: as §1, §2, §3, §4

[6] = system: ICAM1/CD54; test: as above; details: MPP + Iodide (2 mM)
Protocol: as §1, §2, §3, §4

[7] = system: S100b; test: as above; details: MPP + Iodide (2 mM)
Protocol: as §1, §2, §3, §4

## C#CCN(C)[C@H](C)Cc1ccccc1 [Deprenyl, reference compound]
[1]; 1 μM
  % Increase in Mitochondrial potential (w.r.t. control): 58.2%
  Mitochondrial membrane potential: 2.9
[1]; 10 μM
  % Increase in Mitochondrial potential (w.r.t. control): 67.9%
  Mitochondrial membrane potential: 3.1
[1]; 25 μM
  % Increase in Mitochondrial potential (w.r.t. control): 95.3%
  Mitochondrial membrane potential: 3.6
[1]; 50 μM
  % Increase in Mitochondrial potential (w.r.t. control): 79.6%
  Mitochondrial membrane potential: 3.3
[1]; 100 μM
  % Increase in Mitochondrial potential (w.r.t. control): 39.9%
  Mitochondrial membrane potential: 2.6
[2]; 10 μM
  % Change of Biomarkers markers (with respect to Control) Dopamine: 21.2%
[2]; 50 μM
  % Change of Biomarkers markers (with respect to Control) Dopamine: 37.7%
[2]; 100 μM
  % Change of Biomarkers markers (with respect to Control) Dopamine: −47.2%
[3]; 10 μM
  % Change of Biomarkers markers (with respect to Control) Calbindin D: 5%
[3]; 50 μM
  % Change of Biomarkers markers (with respect to Control) Calbindin D: 0%
[3]; 100 μM
  % Change of Biomarkers markers (with respect to Control) Calbindin D: 3.3%
[4]; 10 μM
  % Change of Biomarkers markers (with respect to Control) Serotonin: 9.1%
[4]; 50 μM
  % Change of Biomarkers markers (with respect to Control) Serotonin: 33%
[4]; 100 μM
  % Change of Biomarkers markers (with respect to Control) Serotonin: 17.1%
[5]; 10 μM
  % Change of Biomarkers markers (with respect to Control) Park7/DJ-1: −6.8%
[5]; 50 μM
  % Change of Biomarkers markers (with respect to Control) Park7/DJ-1: −7.9%
[5]; 100 μM
  % Change of Biomarkers markers (with respect to Control) Park7/DJ-1: −9.2%
[6]; 10 μM
  % Change of Biomarkers markers (with respect to Control) ICAM1/CD54: 12.9%
[6]; 50 μM
  % Change of Biomarkers markers (with respect to Control) ICAM1/CD54: −23.7%
[6]; 100 μM
  % Change of Biomarkers markers (with respect to Control) ICAM1/CD54: −37%
[7]; 10 μM
  % Change of Biomarkers markers (with respect to Control) S100b: −6.7%
[7]; 50 μM
  % Change of Biomarkers markers (with respect to Control) S100b: −6.5%
[7]; 100 μM
  % Change of Biomarkers markers (with respect to Control) S100b: −6.5%
